# Results: ChEMBL document CHEMBL4364273, “Discovery of SHR1653, a Highly Potent and Selective OTR Antagonist with Improved Blood-Brain Barrier Penetration” (ACS Med Chem Lett, 2019)
# Legend:
# Oxytocin receptor = target: T1, Oxytocin receptor (Homo sapiens, UniProt P30559); assay: Antagonist activity at human OTR expressed in HEK293 cells assessed as decrease in calcium flux measured after 10 mins in […] by Fluo-4 dye based microplate reader based assay; assay type: functional, cell-based
# T1 sequence (P30559 whole entry): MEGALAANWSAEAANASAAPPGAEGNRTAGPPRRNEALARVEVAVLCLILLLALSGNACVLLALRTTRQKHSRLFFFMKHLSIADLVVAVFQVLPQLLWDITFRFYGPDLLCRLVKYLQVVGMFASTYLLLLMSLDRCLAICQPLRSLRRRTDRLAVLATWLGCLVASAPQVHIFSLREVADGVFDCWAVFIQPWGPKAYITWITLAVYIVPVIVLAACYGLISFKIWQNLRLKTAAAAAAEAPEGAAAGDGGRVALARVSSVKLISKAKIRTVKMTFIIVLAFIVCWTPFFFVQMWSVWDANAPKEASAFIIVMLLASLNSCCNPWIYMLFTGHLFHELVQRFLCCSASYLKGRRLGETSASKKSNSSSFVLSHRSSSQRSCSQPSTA
# [1] = Unbound fraction in Sprague-Dawley rat plasma by LC-MS/MS analysis; assay type: ADME, cell-free
# [2] = Unbound fraction in Sprague-Dawley rat brain by LC-MS/MS analysis; assay type: ADME, tissue-based
# [3] = Plasma concentration in Sprague-Dawley rat by LC-MS/MS analysis; assay type: ADME, cell-free
# [4] = Drug concentration in Sprague-Dawley rat brain by LC-MS/MS analysis; assay type: ADME, tissue-based; details: in vivo
# [5] = Unbound brain-to-plasma concentration ratio in Sprague-Dawley rat by LC-MS/MS analysis; assay type: ADME, cell-free; details: read-out: K(p,uu,brain)
# Rattus norvegicus = assay: Anti-premature ejaculation activity in anesthetized oxytocin-induced uterine contraction Sprague-Dawley rat model assessed as decrease in intraluminal uterine pressure at 30 mg/kg, po treated for 20 mins and 1 hr later treated with oxytocin and measured for 15 to 30 mins relative to control; assay type: functional
# [6] = AUC (0 to 24 hrs) in anesthetized oxytocin-induced uterine contraction Sprague-Dawley rat model at 30 mg/kg, po; assay type: ADME, organism-based; design: dose 30 mg/kg, time < 24 hr, route oral; details: in vivo
# Vasopressin V1a receptor = Vasopressin V1a receptor (Homo sapiens, UniProt P37288); assay: Antagonist activity at human vasopressin V1A receptor expressed in HEK293 cells assessed as decrease in vasopressin-stimulated calcium flux measured after 10 mins by Fluo-4 dye based microplate reader based assay; assay type: functional, cell-based
# Vasopressin V1b receptor = target: T2, Vasopressin V1b receptor (Homo sapiens, UniProt P47901); assay: Antagonist activity at human vasopressin V1B receptor expressed in HEK293 cells assessed as decrease in vasopressin-stimulated calcium flux measured after 10 mins by Fluo-4 dye based microplate reader based assay; assay type: functional, cell-based
# T2 sequence (P47901 whole entry): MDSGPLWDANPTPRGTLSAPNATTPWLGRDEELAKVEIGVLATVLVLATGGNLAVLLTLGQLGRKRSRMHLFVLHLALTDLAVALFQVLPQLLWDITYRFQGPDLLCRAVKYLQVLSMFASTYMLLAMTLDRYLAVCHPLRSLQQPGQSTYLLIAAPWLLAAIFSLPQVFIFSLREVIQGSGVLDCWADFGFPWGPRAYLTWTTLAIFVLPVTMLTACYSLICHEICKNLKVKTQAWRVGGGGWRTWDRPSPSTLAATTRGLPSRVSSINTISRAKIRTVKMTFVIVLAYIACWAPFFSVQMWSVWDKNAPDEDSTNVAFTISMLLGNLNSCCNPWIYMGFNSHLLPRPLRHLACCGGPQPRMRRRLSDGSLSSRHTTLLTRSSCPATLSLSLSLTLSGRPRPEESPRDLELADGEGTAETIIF
# [7] = Cmax in Sprague-Dawley rat at 2 mg/kg, po measured for 24 hrs by LC-MS/MS analysis; assay type: ADME, organism-based; design: dose 2 mg/kg, route oral; details: in vivo
# [8] = Half-life in Sprague-Dawley rat at 2 mg/kg, po measured for 24 hrs by LC-MS/MS analysis; assay type: ADME, organism-based; details: in vivo
# [9] = Clearance in Sprague-Dawley rat at 1 mg/kg, iv measured for 24 hrs by LC-MS/MS analysis; assay type: ADME, organism-based; details: in vivo
# [10] = AUC (0 to 24 hrs) in Sprague-Dawley rat at 2 mg/kg, po by LC-MS/MS analysis; assay type: ADME, organism-based; design: time < 24 hr, dose 2 mg/kg, route oral; details: in vivo
# [11] = target: Voltage-gated inwardly rectifying potassium channel KCNH2 (Homo sapiens, UniProt Q12809); assay: Inhibition of human ERG
# Voltage-gated inwardly rectifying potassium channel KCNH2, sequence (Q12809 whole entry): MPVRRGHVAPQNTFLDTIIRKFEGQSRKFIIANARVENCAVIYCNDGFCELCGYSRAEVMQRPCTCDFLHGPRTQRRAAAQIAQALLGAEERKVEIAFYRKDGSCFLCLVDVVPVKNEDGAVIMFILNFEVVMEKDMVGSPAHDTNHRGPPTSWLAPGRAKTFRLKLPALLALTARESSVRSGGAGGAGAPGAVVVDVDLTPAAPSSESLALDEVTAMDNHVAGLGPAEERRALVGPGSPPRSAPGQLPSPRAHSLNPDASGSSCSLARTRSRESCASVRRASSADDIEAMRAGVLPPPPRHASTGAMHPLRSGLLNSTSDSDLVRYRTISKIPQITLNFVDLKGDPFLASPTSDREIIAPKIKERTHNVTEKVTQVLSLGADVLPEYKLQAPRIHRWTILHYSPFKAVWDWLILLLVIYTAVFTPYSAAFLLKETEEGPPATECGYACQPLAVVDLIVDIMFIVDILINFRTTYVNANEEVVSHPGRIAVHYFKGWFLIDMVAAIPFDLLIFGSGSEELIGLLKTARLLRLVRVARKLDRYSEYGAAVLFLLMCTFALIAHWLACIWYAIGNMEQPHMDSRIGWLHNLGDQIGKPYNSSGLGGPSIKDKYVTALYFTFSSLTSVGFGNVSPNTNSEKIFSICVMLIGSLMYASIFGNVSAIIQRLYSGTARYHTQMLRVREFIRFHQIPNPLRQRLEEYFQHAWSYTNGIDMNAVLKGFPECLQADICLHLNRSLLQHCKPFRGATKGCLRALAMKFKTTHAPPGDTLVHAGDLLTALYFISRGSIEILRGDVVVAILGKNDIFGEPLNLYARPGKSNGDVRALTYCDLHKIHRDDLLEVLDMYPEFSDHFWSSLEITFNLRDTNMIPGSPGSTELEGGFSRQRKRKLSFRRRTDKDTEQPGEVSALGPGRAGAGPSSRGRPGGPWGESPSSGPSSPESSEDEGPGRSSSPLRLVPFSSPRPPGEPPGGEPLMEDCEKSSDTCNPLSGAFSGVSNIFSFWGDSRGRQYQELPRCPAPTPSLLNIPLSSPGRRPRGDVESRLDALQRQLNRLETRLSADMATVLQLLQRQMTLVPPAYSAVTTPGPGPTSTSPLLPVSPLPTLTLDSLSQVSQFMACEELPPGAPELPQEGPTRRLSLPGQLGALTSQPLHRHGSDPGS
# Vasopressin V1a receptor, sequence (P37288 whole entry): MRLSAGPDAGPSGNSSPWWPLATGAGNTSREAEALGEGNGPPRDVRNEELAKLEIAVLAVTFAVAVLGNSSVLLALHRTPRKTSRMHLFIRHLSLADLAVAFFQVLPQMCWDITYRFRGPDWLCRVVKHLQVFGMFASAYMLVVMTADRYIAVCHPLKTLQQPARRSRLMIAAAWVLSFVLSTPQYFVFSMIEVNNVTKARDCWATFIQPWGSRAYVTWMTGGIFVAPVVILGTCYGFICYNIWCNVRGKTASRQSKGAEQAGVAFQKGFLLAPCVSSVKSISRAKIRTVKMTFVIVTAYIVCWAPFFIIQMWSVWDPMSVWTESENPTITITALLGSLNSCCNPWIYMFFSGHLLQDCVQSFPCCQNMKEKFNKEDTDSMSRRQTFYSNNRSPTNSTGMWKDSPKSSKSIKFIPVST
smiles,measurement,setting,value
COCc1nnc(N2CC(Oc3ccc(F)cc3Cl)C2)n1-c1ccc(OC)nc1,IC50,Oxytocin receptor,23.2 nM
same,fraction unbound,[1],0.0664
same,fraction unbound,[2],0.0165
same,Cp,[3],699 ng/mL
same,Ct,[4],179 ng/g
same,Kp uu,[5],0.064
same,inhibition in vivo at 30 mg/kg,Rattus norvegicus,76.5%
same,AUC(0-t) at 24 h,[6],39500 ng·h/mL
COCc1nnc(N2CC3CN(c4ccc(F)cc4Cl)CC32)n1-c1ccc(OC)nc1 (stereo not given),IC50,Oxytocin receptor,850 nM
COc1ccc(-n2c(CC#N)nnc2N2C[C@@H]3C[C@]3(c3ccc(F)cc3Cl)C2)cn1,IC50,Oxytocin receptor,235 nM
same,IC50,Vasopressin V1a receptor,769 nM
same,IC50,Vasopressin V1b receptor,44400 nM
COCc1nnc(N2CC3(C2)OCc2cc(F)ccc23)n1-c1ccc(OC)nc1,IC50,Oxytocin receptor,6760 nM
CCOCc1nnc(N2C[C@@H]3C[C@]3(c3ccc(F)cc3Cl)C2)n1-c1ccc(OC)nc1,IC50,Oxytocin receptor,9.3 nM
same,IC50,Vasopressin V1a receptor,1760 nM
same,Cmax,[7],135 ng/mL
same,half-life,[8],3.48 h
same,clearance,[9],17.8 mL/min/kg
same,AUC(0-t) at 24 h,[10],1020 ng·h/mL
same,IC50,[11],6100 nM
COc1ccc(-n2c(COCCF)nnc2N2C[C@@H]3C[C@]3(c3ccc(F)cc3Cl)C2)cn1,IC50,Vasopressin V1a receptor,819 nM
COCc1nnc(N2CC3(CCc4cc(F)ccc4O3)C2)n1-c1ccc(OC)nc1,IC50,Oxytocin receptor,401 nM
COCc1nnc(N2CCN(Cc3ccc(F)cc3Cl)CC2)n1-c1ccc(OC)nc1,IC50,Oxytocin receptor,910 nM
COCc1nnc(C2CCN(Cc3ccc(F)cc3Cl)CC2)n1-c1ccc(OC)nc1,IC50,Oxytocin receptor,2790 to 3000 nM
COCc1nnc(N2CC3COCC3(c3ccc(F)cc3Cl)C2)n1-c1ccc(OC)nc1 (stereo not given),IC50,Oxytocin receptor,2560 nM
COc1ccc(-n2c(CO[C@H]3CCOC3)nnc2N2C[C@@H]3C[C@]3(c3ccc(F)cc3Cl)C2)cn1,IC50,Oxytocin receptor,184 nM
COCc1nnc(N2CC3CN(c4ccc(F)cc4Cl)C3C2)n1-c1ccc(OC)nc1 (stereo not given),IC50,Oxytocin receptor,121 nM
CC[C@H](C)[C@@H]1C(=O)N[C@H](C2Cc3ccccc3C2)C(=O)N1[C@@H](C(=O)N1CCOCC1)c1ccc(C)nc1C [EPELSIBAN],IC50,Oxytocin receptor,9.2 nM
COCc1nnc(N2C[C@H]3C[C@@H](Oc4ccc(F)cc4Cl)C[C@H]3C2)n1-c1ccc(OC)nc1,IC50,Oxytocin receptor,1380 nM
COCc1nnc(N2CCC(c3ccc(F)cc3Cl)C2)n1-c1ccc(OC)nc1 (stereo not given),IC50,Oxytocin receptor,27 nM
same,Cmax,[7],204 ng/mL
same,half-life,[8],1.89 h
same,AUC(0-t) at 24 h,[10],478 ng·h/mL
COc1ccc(-n2c(CO[C@@H]3CCOC3)nnc2N2C[C@@H]3C[C@]3(c3ccc(F)cc3Cl)C2)cn1,IC50,Oxytocin receptor,223 nM
same,IC50,Vasopressin V1a receptor,1980 nM
COCc1nnc(N2C3CCC2CC(Oc2ccc(F)cc2Cl)C3)n1-c1ccc(OC)nc1 (stereo not given),IC50,Oxytocin receptor,1230 nM
COc1ccc(-n2c(C(F)F)nnc2N2C[C@@H]3C[C@]3(c3ccc(F)cc3Cl)C2)cn1,IC50,Vasopressin V1a receptor,1870 nM
COc1ccc(-n2c(COC3CCOCC3)nnc2N2C[C@@H]3C[C@]3(c3ccc(F)cc3Cl)C2)cn1,IC50,Oxytocin receptor,826 nM
COCc1nnc(N2C[C@@H]3C[C@]3(c3ccc(F)cc3Cl)C2)n1-c1ccc2c(c1)OCO2,IC50,Vasopressin V1a receptor,810 nM
COc1ccc(-n2c(C3CC3)nnc2N2C[C@@H]3C[C@]3(c3ccc(F)cc3Cl)C2)cn1,IC50,Oxytocin receptor,433 nM
same,IC50,Vasopressin V1a receptor,11000 nM
COCc1nnc(N2CCC(c3ccc(F)cc3Cl)CC2)n1-c1ccc(OC)nc1,IC50,Oxytocin receptor,10 nM
same,Cmax,[7],96 ng/mL
same,half-life,[8],2.39 h
same,clearance,[9],45 mL/min/kg
same,AUC(0-t) at 24 h,[10],767 ng·h/mL
COCc1nnc(N2C[C@@H]3C[C@]3(c3cccc(F)c3Cl)C2)n1-c1ccc(OC)nc1,IC50,Oxytocin receptor,30 nM
same,Cmax,[7],15 ng/mL
same,half-life,[8],3.15 h
same,AUC(0-t) at 24 h,[10],34 ng·h/mL
